Test results as given in PMC12040169 (PLOS Biology, 2025).

Test: in vitro
Conditions: human, hela cells, % viability
In the case of `O=C(Nc1nonc1-c1nc2ccccc2n1CCOC(=O)c1ccc(F)cc1)c1ccc(F)cc1` [CBK062653], the viability at 28.5 h, 10 µM is reported as 102%.
Molecule `Nc1nonc1-c1nc2ccccc2[nH]1` [CBK062657] has a viability at 28.5 h, 10 µM of 89.4%.
Work on `Cc1nc2n(CC#N)c3ccccc3n2n1` [CBK062670] yielded a viability at 28.5 h, 10 µM of 99.7%.
Work on `Cn1nccc1NS(=O)(=O)c1cc(C(=O)O)c(Cl)cc1F` [CBK062712] yielded a viability at 28.5 h, 10 µM of 106%.
Molecule `CS(=O)(=O)Nc1ccc2[nH]ccc2c1` [CBK062728] has a viability at 28.5 h, 10 µM of 91.2%.
In the case of `CC(C)CN1CCN(S(=O)(=O)c2ccc(C(F)(F)F)cc2Cl)CC1` [CBK062740], the viability at 28.5 h, 10 µM is reported as 113%.
For `CCOc1ccc(S(=O)(=O)N2CCCN(Cc3cccc(C(F)(F)F)c3)CC2)c2cccnc12` [CBK062760], the viability at 28.5 h, 10 µM was 84.3%.
`CC(=O)c1ccc(CN2CCCN(S(=O)(=O)c3ccc(C(=O)c4ccccc4)cc3)CC2)cc1` [CBK062764] showed a viability at 28.5 h, 10 µM of 109%.
Work on `COC(=O)c1cc(CN2CCCN(S(=O)(=O)c3ccc(C(=O)c4ccccc4)cc3)CC2)cn1C` [CBK062770] yielded a viability at 28.5 h, 10 µM of 97.2%.
For `CCOc1ccc(S(=O)(=O)N2CCN(Cc3cc(F)c(F)c(F)c3)CC2)c2cccnc12` [CBK062795], the viability at 28.5 h, 10 µM was 95.4%.
`COC(=O)CCc1ccc(S(=O)(=O)N2CCN(Cc3csc(-c4ccccc4)n3)CC2)cc1` [CBK062812] showed a viability at 28.5 h, 10 µM of 91.8%.
`CCC(C)(C)c1ccc(S(=O)(=O)N2CCN(Cc3ccc(C(C)=O)cc3)CC2)cc1` [CBK062826] gave a viability at 28.5 h, 10 µM of 95.1%.
Work on `CCC(C)(C)c1ccc(S(=O)(=O)N2CCN(Cc3cc(C(=O)OC)n(C)c3)CC2)cc1` [CBK062831] yielded a viability at 28.5 h, 10 µM of 96.3%.
`CCC(C)(C)c1ccc(S(=O)(=O)N2CCCN(Cc3cn(C)c4ccccc34)CC2)cc1` [CBK062871] gave a viability at 28.5 h, 10 µM of 91.2%.
With `CCCC(=O)c1ccc(S(=O)(=O)N2CCCN(Cc3cccc4cccnc34)CC2)cc1` [CBK062909] the viability at 28.5 h, 10 µM was 93%.
`CCCC(=O)c1ccc(S(=O)(=O)N2CCCN(Cc3c[nH]nc3-c3ccc(F)cc3)CC2)cc1` [CBK062911] showed a viability at 28.5 h, 10 µM of 121%.
`CCCC(=O)c1ccc(S(=O)(=O)N2CCCN(Cc3c(-c4ccccc4)nc4sccn34)CC2)cc1` [CBK062912] showed a viability at 28.5 h, 10 µM of 119%.
With `CCCC(=O)c1ccc(S(=O)(=O)N2CCCN(Cc3ccc(F)cc3Cl)CC2)cc1` [CBK062917] the viability at 28.5 h, 10 µM was 116%.
`CCCC(=O)c1ccc(S(=O)(=O)N2CCCN(Cc3ccc(OC)c(F)c3)CC2)cc1` [CBK062926] gave a viability at 28.5 h, 10 µM of 93.7%.
With `Cc1c(F)cccc1CN1CCN(S(=O)(=O)c2ccc(C(=O)c3ccccc3)cc2)CC1` [CBK062929] the viability at 28.5 h, 10 µM was 102%.
Work on `Cc1cc(CN2CCN(S(=O)(=O)c3ccc(C(=O)c4ccccc4)cc3)CC2)cc(C)c1O` [CBK062933] yielded a viability at 28.5 h, 10 µM of 90.4%.
`CCOc1ccc(S(=O)(=O)N2CCCN(CCCC#N)CC2)c2cccnc12` [CBK062935] gave a viability at 28.5 h, 10 µM of 98.5%.
`O=S(=O)(c1ccc(C(F)(F)F)cc1Cl)N1CCCN(Cc2ccnc3ccccc23)CC1` [CBK062942] gave a viability at 28.5 h, 10 µM of 101%.
Work on `O=S(=O)(c1ccc(C(F)(F)F)cc1Cl)N1CCCN(Cc2ccc(F)cc2F)CC1` [CBK062946] yielded a viability at 28.5 h, 10 µM of 91.8%.
`O=C(c1ccccc1)c1ccc(S(=O)(=O)N2CCN(Cc3ccc(O)c(F)c3)CC2)cc1` [CBK062948] showed a viability at 28.5 h, 10 µM of 95.8%.
Work on `N#Cc1ccc(CN2CCCN(S(=O)(=O)c3ccc(C(=O)c4ccccc4)cc3)CC2)cc1` [CBK062962] yielded a viability at 28.5 h, 10 µM of 89.9%.
`CCC(C)(C)c1ccc(S(=O)(=O)N2CCN(Cc3ccc(O)c(F)c3)CC2)cc1` [CBK062968] gave a viability at 28.5 h, 10 µM of 91.7%.
In the case of `COC(=O)CCc1ccc(S(=O)(=O)N2CCN(Cc3cccc4cccnc34)CC2)cc1` [CBK062969], the viability at 28.5 h, 10 µM is reported as 87.8%.
`O=c1[nH]cc(CN2CCCN(S(=O)(=O)c3ccc(C(F)(F)F)cc3Cl)CC2)c(=O)[nH]1` [CBK062975] gave a viability at 28.5 h, 10 µM of 106%.
For `COC(=O)CCc1ccc(S(=O)(=O)N2CCCN(Cc3cccc(Br)c3)CC2)cc1` [CBK062981], the viability at 28.5 h, 10 µM was 102%.
In the case of `COC(=O)CCc1ccc(S(=O)(=O)N2CCCN(Cc3c[nH]c4ccc(OC)cc34)CC2)cc1` [CBK062985], the viability at 28.5 h, 10 µM is reported as 98.1%.
In the case of `COC(=O)CCc1ccc(S(=O)(=O)N2CCCN(Cc3cc(F)cc(F)c3)CC2)cc1` [CBK062990], the viability at 28.5 h, 10 µM is reported as 106%.
Work on `COC(=O)CCc1ccc(S(=O)(=O)N2CCCN(Cc3c[nH]c4ccc(Cl)cc34)CC2)cc1` [CBK063000] yielded a viability at 28.5 h, 10 µM of 99.2%.
`COC(=O)CCc1ccc(S(=O)(=O)N2CCCN(Cc3c(-c4ccccc4)noc3C)CC2)cc1` [CBK063011] gave a viability at 28.5 h, 10 µM of 97.3%.
`CCOC(=O)C1CC1CN1CCCN(S(=O)(=O)c2ccc(C(=O)c3ccccc3)cc2)CC1` (centres unmarked) [CBK063028] showed a viability at 28.5 h, 10 µM of 88.6%.
With `CCOc1ccc(S(=O)(=O)N2CCCN(Cc3c[nH]c(C)n3)CC2)c2cccnc12` [CBK063031] the viability at 28.5 h, 10 µM was 101%.
For `Cc1nc[nH]c1CN1CCCN(S(=O)(=O)c2ccc(C(F)(F)F)cc2Cl)CC1` [CBK063035], the viability at 28.5 h, 10 µM was 112%.
Work on `O=S(=O)(c1ccc(C(F)(F)F)cc1Cl)N1CCCN(Cc2ccc3cccc(O)c3n2)CC1` [CBK063036] yielded a viability at 28.5 h, 10 µM of 101%.
Molecule `O=S(=O)(c1ccc(-c2ccccc2)cc1)N1CCCN(CCCO)CC1` [CBK063043] has a viability at 28.5 h, 10 µM of 102%.
`CCOc1ccc(S(=O)(=O)N2CCN(CCCC#N)CC2)c2cccnc12` [CBK063046] showed a viability at 28.5 h, 10 µM of 91.6%.
Work on `CCC(C)(C)c1ccc(S(=O)(=O)N2CCCN(Cc3ccc4cccc(O)c4n3)CC2)cc1` [CBK063051] yielded a viability at 28.5 h, 10 µM of 90.5%.
For `Cc1noc(-c2ccccc2)c1CN1CCCN(S(=O)(=O)c2ccc(C(F)(F)F)cc2Cl)CC1` [CBK063104], the viability at 28.5 h, 10 µM was 103%.
`CC(=O)c1ccc(CN2CCCN(S(=O)(=O)c3ccc(C(F)(F)F)cc3Cl)CC2)cc1` [CBK063106] showed a viability at 28.5 h, 10 µM of 104%.
`COc1ccc(CN2CCCN(S(=O)(=O)c3ccc(-c4ccccc4)cc3)CC2)cc1F` [CBK063108] showed a viability at 28.5 h, 10 µM of 111%.
For `O=S(=O)(c1ccc(-c2ccccc2)cc1)N1CCCN(Cc2ccc(F)c(C(F)(F)F)c2)CC1` [CBK063115], the viability at 28.5 h, 10 µM was 98.9%.
Work on `COc1ccc2c(c1)c(CN1CCCN(S(=O)(=O)c3ccc(-c4ccccc4)cc3)CC1)cn2C` [CBK063125] yielded a viability at 28.5 h, 10 µM of 104%.
`O=S(=O)(c1ccc(-c2ccccc2)cc1)N1CCCN(Cc2cccnc2N2CCOCC2)CC1` [CBK063127] showed a viability at 28.5 h, 10 µM of 99.5%.
`CCC(C)(C)c1ccc(S(=O)(=O)N2CCN(CCCC#N)CC2)cc1` [CBK063134] gave a viability at 28.5 h, 10 µM of 93.4%.
`CCC(C)(C)c1ccc(S(=O)(=O)N2CCN(CCCOC3CCCCO3)CC2)cc1` (centres unmarked) [CBK063135] showed a viability at 28.5 h, 10 µM of 96.9%.
`O=S(=O)(c1ccc(-c2ccccc2)cc1)N1CCCN(CCCOC2CCCCO2)CC1` (centres unmarked) [CBK063137] gave a viability at 28.5 h, 10 µM of 114%.
`CCCC(=O)c1ccc(S(=O)(=O)N2CCN(Cc3cccc(Br)c3)CC2)cc1` [CBK063146] gave a viability at 28.5 h, 10 µM of 87.4%.
`CCCC(=O)c1ccc(S(=O)(=O)N2CCN(Cc3ccc(C(C)=O)cc3)CC2)cc1` [CBK063159] showed a viability at 28.5 h, 10 µM of 107%.
Molecule `CCCC(=O)c1ccc(S(=O)(=O)N2CCN(Cc3csc(-c4ccccc4)n3)CC2)cc1` [CBK063161] has a viability at 28.5 h, 10 µM of 93.3%.
With `CCCC(=O)c1ccc(S(=O)(=O)N2CCN(Cc3ccc(F)c(C(F)(F)F)c3)CC2)cc1` [CBK063162] the viability at 28.5 h, 10 µM was 101%.
For `O=S(=O)(c1ccc(C(F)(F)F)cc1Cl)N1CCN(Cc2cccc(Br)c2)CC1` [CBK063163], the viability at 28.5 h, 10 µM was 83.7%.
Work on `COc1ccc2[nH]c3c(c2c1)CCN(S(C)(=O)=O)C31CCN(CCOc2ccccc2)C1` (centres unmarked) [CBK063187T] yielded a viability at 28.5 h, 10 µM of 92.9%.
